Measured values: patent US12325697B2 (Nimbus Clio, Inc., priority 2021, dated 2025)

How the values were obtained:
[1] = test system: Jurkat (clone E6-1) cells, NFAT luciferase reporter; assay: Jurkat Reporter Assay (NFAT Luciferase); assay type: cell-based; conditions: Homo sapiens, anti-CD3 stimulation, 6 hr, read-out: Jurkat NFAT EC50
[2] = test system: Phospho-Zap70 (Y-319) in Jurkat wild-type (clone E6-1) cells; assay: Jurkat pZAP70 HTRF Assay; assay type: cell-based; conditions: Homo sapiens, anti-CD3 5 μg/ml, 3 hr, read-out: ZAP70 Jurkat EC50
[3] = biological target: Recombinant human Cbl-b (aa 36-427) (Homo sapiens (Human), UniProt Q13191); assay: Cbl-b Biochemical Assay (TR-FRET); conditions: read-out: TR-FRET hCbl-b IC50
Summary of the method: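 IC50 from 4-parameter fit of % inhibition (DMSO max, reference-inhibitor min), duplicate ten-point series. Compound preincubated with 6 nM Cbl-b, then Src-Zap70 (1-2.5 nM)/0.5 mM ATP reaction 60 min RT; EDTA quench with labelled UBE2D2-Ub and streptavidin-terbium, 60 min, HTRF at 520 nm.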

Recombinant human Cbl-b (aa 36-427), sequence (Q13191 36-427): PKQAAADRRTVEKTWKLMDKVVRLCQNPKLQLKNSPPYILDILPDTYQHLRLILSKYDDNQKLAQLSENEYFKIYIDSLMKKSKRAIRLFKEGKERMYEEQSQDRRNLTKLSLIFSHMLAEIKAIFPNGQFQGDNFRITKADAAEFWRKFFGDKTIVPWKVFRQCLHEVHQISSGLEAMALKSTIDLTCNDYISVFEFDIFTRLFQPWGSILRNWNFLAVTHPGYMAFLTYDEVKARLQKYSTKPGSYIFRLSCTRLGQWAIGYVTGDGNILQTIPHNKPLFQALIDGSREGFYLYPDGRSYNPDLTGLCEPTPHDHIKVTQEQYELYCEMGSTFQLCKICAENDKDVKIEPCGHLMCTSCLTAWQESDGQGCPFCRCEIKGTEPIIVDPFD

Row | SMILES | EC50 [1] | EC50 [2] | IC50 [3]
1 | CCOc1cc(-c2ccc(F)cc2-c2nncn2C)cc(N2Cc3ccc(CNCC4(O)CCC4)cc3C2=O)n1 [AGR-1, 2-{6-Ethoxy-4-[4-fluoro-2-(4-methyl-1,2,4-triazol-3-yl)phenyl]pyridin-2-yl}-6-({[(1-hydroxycyclobutyl)methyl]amino}methyl)-3H-isoindol-1-one] | < 200 nM | < 200 nM | ≤ 200 nM
2 | CCNc1cc(-c2ccc(F)cc2-c2nncn2C)cc(N2Cc3c(cc(COCC4(N)CCC4)cc3C(F)(F)F)C2=O)n1 [AGS-2] | < 200 nM | < 200 nM | ≤ 200 nM
3 | Cn1cnnc1-c1cc(C#N)ccc1-c1cc(C2CC2)nc(N2Cc3ccc(CNCCOC(F)(F)F)cc3C2=O)c1 [AGT-3, 4-{2-Cyclopropyl-6-[1-oxo-6-({[2-(trifluoromethoxy)ethyl]amino}methyl)-3H-isoindol-2-yl]pyridin-4-yl}-3-(4-methyl-1,2,4-triazol-3-yl)benzonitrile] | < 200 nM | < 200 nM | ≤ 200 nM
4 | Cn1cnnc1-c1cc(Cl)ccc1-c1cccc(N2Cc3ccc(CNCC4(O)CCCC4)cc3C2=O)c1 [AGU-10, 2-[4′-Chloro-2′-(4-methyl-1,2,4-triazol-3-yl)-[1,1′-biphenyl]-3-yl]-6-({[(1-hydroxycyclopentyl)methyl]amino}methyl)-3H-isoindol-1-one] | < 200 nM | < 200 nM | ≤ 200 nM
5 | Cn1cnnc1-c1cc(Cl)ccc1-c1cccc(N2Cc3ccc(CNCC4(O)CCC4)cc3C2=O)c1 [AGV-1, 2-[4′-Chloro-2′-(4-methyl-1,2,4-triazol-3-yl)-[1,1′-biphenyl]-3-yl]-6-({[(1-hydroxycyclobutyl)methyl]amino}methyl)-3H-isoindol-1-one] | < 200 nM | < 200 nM | ≤ 200 nM
6 | Cn1cnnc1-c1cc(Cl)ccc1-c1cc(C2CC2)nc(N2Cc3ccc(CNCC4(O)CCC4)cc3C2=O)c1 [AGW-6, 2-{4-[4-Chloro-2-(4-methyl-1,2,4-triazol-3-yl)phenyl]-6-cyclopropylpyridin-2-yl}-6-({[(1-hydroxycyclobutyl)methyl]amino}methyl)-3H-isoindol-1-one] | < 200 nM | < 200 nM | ≤ 200 nM
7 | CNCc1cc2c(c(C(F)(F)F)c1)CN(c1cc(-c3ccc(C#N)cc3-c3nncn3C)cc(C3CC3)n1)C2=O [AGZ-1, 4-(2-Cyclopropyl-6-{6-[(methylamino)methyl]-1-oxo-4-(trifluoromethyl)-3H-isoindol-2-yl}pyridin-4-yl)-3-(4-methyl-1,2,4-triazol-3-yl)benzonitrile] | < 200 nM | < 200 nM | ≤ 200 nM
8 | Cn1cnnc1-c1cc(F)ccc1-c1cccc(N2Cc3ccc(CNCC4(O)CCC4)cc3C2=O)c1 [AHA-2, 2-(4′-Fluoro-2′-(4-methyl-4H-1,2,4-triazol-3-yl)-[1,1′-biphenyl]-3-yl)-6-((((1-hydroxycyclobutyl)methyl)amino)methyl) isoindolin-1-one] | < 200 nM | 200 to 1000 nM | ≤ 200 nM
9 | Cn1cnnc1-c1cc(F)ccc1-c1cccc(N2Cc3ccc(CNCC4(O)CCCC4)cc3C2=O)c1 [AHB-1, 2-(4′-Fluoro-2′-(4-methyl-4H-1,2,4-triazol-3-yl)-[1,1′-biphenyl]-3-yl)-6-((((1-hydroxycyclopentyl)methyl)amino)methyl) isoindolin-1-one] | < 200 nM | < 200 nM | ≤ 200 nM
10 | Cn1cnnc1-c1cc(C#N)ccc1-c1cc(C2CC2)nc(N2Cc3ccc(CN[C@@H]4CCC[C@@H]4O)cc3C2=O)c1 [AHC-1, 4-{2-cyclopropyl-6-[6-({[(1R,2S)-2-hydroxycyclopentyl]amino}methyl)-1-oxo-3H-isoindol-2-yl]pyridin-4-yl}-3-(4-methyl-1,2,4-triazol-3-yl)benzonitrile] | < 200 nM | < 200 nM | ≤ 200 nM
11 | Cn1cnnc1-c1cc(F)ccc1-c1cc(C2CC2)nc(N2Cc3ccc(CNCC(C)(C)O)cc3C2=O)c1 [AHG-2, 2-{6-Cyclopropyl-4-[4-fluoro-2-(4-methyl-1,2,4-triazol-3-yl)phenyl]pyridin-2-yl}-6-{[(2-hydroxy-2-methylpropyl)amino]methyl}-3H-isoindol-1-one] | < 200 nM | < 200 nM | ≤ 200 nM
12 | Cn1cnnc1-c1cc(F)ccc1-c1cc(C2CC2)nc(N2Cc3ccc(CNCC4CCCC4)cc3C2=O)c1 [AHH-3, 6-{[(Cyclopentylmethyl)amino]methyl}-2-{6-cyclopropyl-4-[4-fluoro-2-(4-methyl-1,2,4-triazol-3-yl)phenyl]pyridin-2-yl}-3H-isoindol-1-one] | < 200 nM | < 200 nM | ≤ 200 nM
13 | CN1CC[C@@H](COCc2cc3c(c(C(F)(F)F)c2)CN(c2cc(-c4ccc(F)cc4-c4nncn4C)cc(C4CC4)n2)C3=O)C1 [AHI-4, 2-{6-Cyclopropyl-4-[4-fluoro-2-(4-methyl-1,2,4-triazol-3-yl)phenyl]pyridin-2-yl}-6-({[(3R)-1-methylpyrrolidin-3-yl]methoxy}methyl)-4-(trifluoromethyl)-3H-isoindol-1-one] | < 200 nM | 200 to 1000 nM | ≤ 200 nM
14 | Cn1cnnc1-c1cc(F)ccc1-c1cc(C2CC2)nc(N2Cc3c(cccc3C(F)(F)F)C2=O)c1 [AND-2, 2-{6-Cyclopropyl-4-[4-fluoro-2-(4-methyl-1,2,4-triazol-3-yl)phenyl]pyridin-2-yl}-4-(trifluoromethyl)-3H-isoindol-1-one] | 200 to 1000 nM | 1000 to 10000 nM | ≤ 200 nM
15 | Cn1cnnc1-c1ccccc1-c1cccc(N2Cc3c(cc(CNCC4(O)CCC4)cc3C(F)(F)F)C2=O)c1 [AW-2, 6-((((1-Hydroxycyclobutyl)methyl)amino)methyl)-2-(2′-(4-methyl-4H-1,2,4-triazol-3-yl)-[1,1′-biphenyl]-3-yl)-4-(trifluoromethyl)isoindolin-1-one] | < 200 nM | < 200 nM | ≤ 200 nM
16 | Cn1cnnc1-c1ccccc1-c1cccc(N2Cc3c(cc(CNCC(C)(C)O)cc3C(F)(F)F)C2=O)c1 [AZ-2, 6-(((2-Hydroxy-2-methylpropyl)amino)methyl)-2-(2′-(4-methyl-4H-1,2,4-triazol-3-yl)-[1,1′-biphenyl]-3-yl)-4-(trifluoromethyl)isoindolin-1-one] | < 200 nM | < 200 nM | ≤ 200 nM
